Data published in ChEMBL document CHEMBL1127953, “Substituent effects of benzopyran-4-(N-cyano)-carboxamidine potassium channel openers for selectivity to guinea pig trachealis” (Bioorg Med Chem Lett, 1994).

Experiments:
Format in all cases: functional
Cavia porcellus [1] = organism: Cavia porcellus; assay: Inhibition of spontaneous tone in guinea pig trachaelis
Rattus norvegicus [2] = organism: Rattus norvegicus; assay: […] activity in rat aorta precontracted with 30 mM KCl
Cavia porcellus [3] = organism: Cavia porcellus; assay: Maximum relaxation achieved compared to maximum relaxation to aminophylline (mM) in guinea pig trachaelis
Rattus norvegicus [4] = organism: Rattus norvegicus; assay: Maximum reduction of 30 mM KCl- induced contraction in rat aorta

| Structure (SMILES) | EC50 (Cavia porcellus [1]) [nM] | EC50 (Rattus norvegicus [2]) [nM] | Intrinsic activity (Cavia porcellus [3]) [%] | Intrinsic activity (Rattus norvegicus [4]) [%] |
| --- | --- | --- | --- | --- |
| CN(C)/C(=N\S(N)(=O)=O)C1=CC(C)(C)Oc2ccc([N+](=O)[O-])cc21 | > 31600 | > 31600 |  |  |
| CN(C)/C(=N\C#N)C1=CC(C)(C)Oc2ccc([N+](=O)[O-])cc21 | 51.3 | > 31600 | 90.6 |  |
| CN(C)/C(=N\C#N)C1=CC(C)(C)Oc2ccccc21 | > 31600 | > 31600 |  |  |
| CN(C)/C(=N\C#N)C1=CC(C)(C)Oc2ccc(S(C)(=O)=O)cc21 | > 31600 | > 31600 |  |  |
| CC1(C)Oc2ccc(C#N)cc2[C@@H](N2CCCC2=O)[C@H]1O [CROMAKALIM] | 851 |  | 85.1 | 74.7 |
| COc1ccc2c(c1)C(/C(=N/C#N)N(C)C)=CC(C)(C)O2 | > 31600 | > 31600 |  |  |
| CN(C)/C(=N\C#N)C1=CC(C)(C)Oc2ccc(Br)cc21 | > 31600 | > 31600 |  |  |
| CN(C)/C(=C\[N+](=O)[O-])C1=CC(C)(C)Oc2ccc([N+](=O)[O-])cc21 | 1120 | 6460 | 84.8 | 83.1 |
| CNC(=O)C1=CC(C)(C)Oc2ccc([N+](=O)[O-])cc21 | 33.1 | 10.7 | 89.6 | 61 |
| CN(C)/C(=N\C#N)C1=CC(C)(C)Oc2ccc(C#N)cc21 | 2140 | 5010 | 85.6 | 73.7 |
| CN(C)/C(=N/C#N)C1=CC(C)(C)Oc2ccc(OC(F)(F)F)cc21 | 407 | > 10000 | 56.1 |  |
| CN(C)/C(=N\C(N)=O)C1=CC(C)(C)Oc2ccc([N+](=O)[O-])cc21 | > 31600 | > 31600 |  |  |
| CN(C)/C(=N\C#N)C1=CC(C)(C)Oc2ccc(Cl)cc21 | > 31600 | > 31600 |  |  |
| CC(N/C(=N\C#N)Nc1ccncc1)C(C)(C)C (centres undefined) [PINACIDIL ANHYDROUS] | 1580 |  | 97.3 | 91.9 |
| CN(C)/C(=N\C#N)C1=CC(C)(C)Oc2ccc(S(=O)(=O)c3ccccc3)cc21 | 3630 | 3310 | 91.1 | 73.8 |
| CN(C)C(=S)C1=CC(C)(C)Oc2ccc([N+](=O)[O-])cc21 | 490 | 955 | 77.4 | 71.5 |
| CN(C)C(=O)C1=CC(C)(C)Oc2ccc([N+](=O)[O-])cc21 | 398 | 129 | 78.3 | 79.9 |
| CN(C)/C(=N\C#N)C1=CC(C)(C)Oc2ccc(C(F)(F)F)cc21 | 178 | 12600 | 74.1 | 75.2 |
